Laboratory results as given in US20140161720A1, “TREATMENT OF ANGIOGENIC- OR VASCULAR-ASSOCIATED DISEASES” (THE GENERAL HOSPITAL CORPORATION, priority 2011, published 2014).
Entries after “also recorded” stand apart in the source; their conditions may differ.

How the values were obtained:
MDA-MB-231 cells = assay: High-throughput cell adhesion screen (cells remaining attached); assay type: cell-based, human; settings: FIG. 1C
Description: A cell-based readout system was used for compound selection. For the cell-based screening, an optimal cell density of 10,000 breast cancer MDA-MB-231 cells/well was selected to produce the most prominent signal. The plated cells were incubated with each library compound, washed with PBS, and the Cell Titer-Glo (Promega) reagent was used to detect the number of cells remaining attached in each well. This ATP-based detection has a linear relationship between the luminescent signal and the number of cells per well. Of the 50,000 compounds screened, 86 library compounds (0.172% of screened compounds) were selected at 1.67 μM concentration for the second screening step. […] As a further test of toxicity, DAL was injected intraperitoneally at 100 mg/kg in SCID mice and signs of toxicity including cachexia, ruffled fur, diarrhea, anorexia, skin ulceration, and toxic death were monitored.
A screening strategy was developed to identify potential agents that target adhesion of endothelial cells or cancer cells to their substrate. […] The initial screening step quantified the number of cells remaining attached to their wells following incubation with each compound and subsequent washing steps. […] The agents that affect cell adhesion can be monitored through remodeling of actin filaments. […] Changes in actin assembly and cell shape after treatment with 12 compounds were determined. […]

recombinant purified IDO = recombinant purified IDO (Homo sapiens, UniProt P14902); settings: cited (He et al., 2008); cited from earlier work
recombinant purified IDO, sequence (P14902 whole entry): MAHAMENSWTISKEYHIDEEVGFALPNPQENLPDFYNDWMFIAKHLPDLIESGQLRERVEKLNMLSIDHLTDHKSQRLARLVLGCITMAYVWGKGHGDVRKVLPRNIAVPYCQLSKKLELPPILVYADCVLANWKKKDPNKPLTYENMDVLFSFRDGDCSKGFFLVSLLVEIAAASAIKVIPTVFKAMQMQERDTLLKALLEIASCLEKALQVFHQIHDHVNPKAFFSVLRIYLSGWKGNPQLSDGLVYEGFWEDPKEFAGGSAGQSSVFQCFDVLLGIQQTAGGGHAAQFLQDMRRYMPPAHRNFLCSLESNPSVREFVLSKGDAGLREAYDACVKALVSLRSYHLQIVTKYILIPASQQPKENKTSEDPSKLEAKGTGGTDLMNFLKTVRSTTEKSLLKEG

[1] = tested on: orthotopic 4T1 mammary tumors; assay: Tumor growth delay study, 4T1; assay type: in vivo, female SCID mice; settings: 4T1 tumors, start ~200 mm^3, 37.5 mg/kg daily i.p.
Description: To assess the anti-tumor effects of DAL, female SCID mice bearing orthotopic 4T1 or E0771 mammary tumors were treated with daily i.p. injections of 37.5 mg/kg DAL or saline. In order to calculate tumor volumes, the major and minor axis diameters were measured with calipers and the tumor volume was calculated by assuming a spherical shape based on the average of these two dimensions. The tumors were implanted in the mammary fat pad and allowed to grow to a starting size (small ˜100 mm^3 tumors for E0771, large ˜200 mm^3 tumors for 4T1) over ˜2 weeks. To ensure that tumors in the two groups were of similar growth rates, the treatment with saline or DAL was begun in pairs of tumors with similar sizes and growth times. Tumor volumes were measured every other day until the tumors reached an average of ˜10 mm in diameter. Tumor growth was quantified with the doubling rate, and calculated by fitting an exponential growth curve to the data for tumor size versus time.
As shown in Example 3, DAL has an antivascular effect in orthotopic mammary tumors in mice. Thus, the antitumor effect of DAL was next assessed. […] The effect of DAL on the growth of orthotopic 4T1 and E0771 mammary tumors with daily treatment of DAL or saline was evaluated (FIG. 4A). 37.5 mg/kg of DAL was used for these experiments based on the pharmacokinetics results as well as in vitro and in vivo data. […]

Rac1 [2] = assay: Rac1 ubiquitination, Duolink in situ proximity assay in HUVECs; assay type: cell-based, human; settings: HUVEC, lactacystin or MG-132 pretreatment, DAL 10 μM 24 hours
Description: (§1) HUVEC cells were treated with 10 μM of DAL for 24 hours and then lysed. A western blot with anti-human Rac1 antibody is shown on top panel while the bottom panel represents a loading control. […] To enhance ubiquitination events, HUVEC cells were pretreated with the proteasome inhibitors lactacystin (2.5 mM) or MG-132 (0.2 mM) for one hour and subsequently treated with DAL (10 μM) of DAL for 24 hours. Duolink in situ was used for the detection of ubiquitinated Rac1 in DAL treated and untreated HUVEC cells. For the two Duolink PLA probes, primary mouse antibodies raised against human Rac1 and primary rabbit anti-ubiquitin were used. Fluorescent spots represent ubiquitinated Rac1. The nuclei with additionally stained DAPI.
(§2) However, protein levels of Rac1 were reduced after DAL treatment (FIG. 6B). Next, it was assessed whether DAL can enhance Rac1 ubiquitination and therefore promote or speed up degradation (31-34). For the detection of Rac1 ubiquitination in HUVECs, Rac1-ubiquitin binding in situ was identified using a Duolink molecular proximity assay. In this assay, molecules thought to interact are targeted with fluorescent antibodies in situ, and individual interactions generate a signal detectable by microscopy only if secondary antibodies are located in close proximity to each other. […]

[3] = tested on: vasculature in adult fish; assay: Effect on vasculature in adult zebrafish; assay type: in vivo; settings: mature vasculature
Rac1 [4] = assay: Rac1 protein level by western blot in HUVECs; assay type: cell-based, human; settings: HUVEC, 10 μM for 24 hours
Description: as §1, §2

[5] = Pharmacokinetics after intraperitoneal administration; assay type: in vivo; settings: after i.p. dosing, 100% DMSO formulation, male CD-1 mice
Excerpt: FIG. 8 is a graph showing pharmacokinetic parameters after intraperitoneal administration of DAL.

In the case of CC1(C)C=CC2=C(O1)C(=O)c1ccccc1C2=O [DAL, dehydro-alpha-lapachone], the cell adhesion properties (MDA-MB-231 cells) is given as “lost their adhesion properties”, the “mode of IDO inhibition with respect to L-tryptophan” value (recombinant purified IDO) is given as “non-competitive” and the “tumor volume doubling time” value [1] is given as 11.21 ± 3.53 days. The Rac1 ubiquitination (Rac1 [2]) was “more ubiquitinated Rac1 protein; also recorded: increases”, the “effects on the vasculature in adult fish” value [3] was “did not show any effects” and the “protein levels of Rac1” value (Rac1 [4]) was “reduced; also recorded: decreases”. It also gave a half-life in plasma [5] of 1.7 h.
